Reference: patent publication US11697646B2, “Triazole N-linked carbamoyl cyclohexyl acids as LPA antagonists” (BRISTOL-MYERS SQUIBB COMPANY, priority 2017, dated 2023)

Each compound was assayed against T1, human LPA1 (Homo sapiens, UniProt Q92633) (assay: LPA1 functional antagonist assay (calcium flux)). Settings: CHO cells overexpressing human LPA1; calcium flux induced by 10 nM LPA; read-out: hLPA1 IC50.
T1 construct: expressed in transfected cells; host or cells: Chinese hamster ovary (CHO) cells
T1 sequence (Q92633 whole entry): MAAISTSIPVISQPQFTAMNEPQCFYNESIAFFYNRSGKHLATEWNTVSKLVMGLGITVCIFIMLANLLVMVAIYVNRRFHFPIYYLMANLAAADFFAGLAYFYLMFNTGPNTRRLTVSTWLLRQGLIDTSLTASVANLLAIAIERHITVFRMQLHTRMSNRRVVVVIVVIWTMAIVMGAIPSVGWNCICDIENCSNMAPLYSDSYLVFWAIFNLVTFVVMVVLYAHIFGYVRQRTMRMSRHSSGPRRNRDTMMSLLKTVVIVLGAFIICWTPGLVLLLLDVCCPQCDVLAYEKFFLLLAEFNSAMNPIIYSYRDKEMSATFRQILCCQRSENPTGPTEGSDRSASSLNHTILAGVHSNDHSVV
Type: cell-based
Procedure: The effectiveness of compounds of the present invention as LPA1 inhibitors can be determined in an LPA1 functional antagonist assay as follows:
The cells were then equilibrated to room temperature for 30 minutes before the assay. […] IC50 values were determined by fitting data to a 4-parameter logistic equation (GraphPad Prism, San Diego Calif.).
`CCCOC(=O)NCc1c(-c2ccc(O[C@H]3CCC[C@H](C(=O)O)C3)c(CC)n2)nnn1C` [Example 42, (1S,3S)-3-((2-ethyl-6-(1-methyl-5-(((propoxycarbonyl)amino)methyl)-1H-1,2,3-triazol-4-yl)pyridin-3-yl)oxy)cyclohexane-1-carboxylic acid] showed an IC50 of 788 nM.
`Cc1nc(-c2nnn(C)c2CNC(=O)N(C)CCC2CC2)ccc1O[C@H]1CCC[C@H](C(=O)O)C1` [Example 114, (1S,3S)-3-((6-(5-((3-(2-cyclopropyl-ethyl)-3-methylureido)methyl)-1-methyl-1H-1,2,3-triazol-4-yl)-2-methylpyridin-3-yl)oxy)cyclohexane-1-carboxylic acid] showed an IC50 of 112 nM.
In the case of `CC[C@H](C)COC(=O)NCc1c(-c2ccc(O[C@H]3CCC[C@H](C(=O)O)C3)c(C)n2)nnn1C` [Example 1, (1S,3S)-3-((2-Methyl-6-(1-methyl-5-(((((S)-2-methylbutoxy)carbonyl)amino)methyl)-1H-1,2,3-triazol-4-yl)pyridin-3-yl)oxy)cyclohexanecarboxylic acid], the IC50 is reported as 18 nM.
With `Cc1nc(-c2nnn(C)c2CNC(=O)NC(C)C(C)C)ccc1O[C@H]1CCC[C@H](C(=O)O)C1` (single isomer, unassigned) [Example 126] the IC50 was 611 nM.
`Cc1nc(-c2nnn(C)c2CNC(=O)NCC(C)C)ccc1O[C@H]1CCC[C@H](C(=O)O)C1` [Example 127, (1S,3S)-3-((6-(5-((3-isobutylureido)methyl)-1-methyl-1H-1,2,3-triazol-4-yl)-2-methylpyridin-3-yl)oxy)cyclohexane-1-carboxylic acid] gave an IC50 of 2270 nM.
`CCc1nc(-c2nnn(C)c2CNC(=O)OCC(C)C)ccc1O[C@H]1CCC[C@H](C(=O)O)C1` [Example 46, (1S,3S)-3-((2-ethyl-6-(5-(((isobutoxycarbonyl)amino)methyl)-1-methyl-1H-1,2,3-triazol-4-yl)pyridin-3-yl)oxy)cyclohexane-1-carboxylic acid] gave an IC50 of 120 nM.
In the case of `Cn1nnc(-c2ccc(O[C@H]3CCC[C@H](C(=O)O)C3)cn2)c1NC(=O)OCCC1CC1` [Example 84, (1S,3S)-3-((6-(5-(((2-cyclopropyl-ethoxy)carbonyl)amino)-1-methyl-1H-1,2,3-triazol-4-yl)pyridin-3-yl)oxy)cyclohexane-1-carboxylic acid], the IC50 is reported as 38 nM.
`CCCC1(COC(=O)NCc2c(-c3ccc(O[C@H]4CCC[C@H](C(=O)O)C4)c(C)n3)nnn2C)CCC1` [Example 54] gave an IC50 of 58 nM.
Compound `CCCCOC(=O)Nc1c(-c2ccc(O[C@H]3CCC[C@H](C(=O)O)C3)cn2)nnn1C` [Example 89, (1S,3S)-3-((6-(5-((butoxycarbonyl)amino)-1-methyl-1H-1,2,3-triazol-4-yl)pyridin-3-yl)oxy)cyclohexane-1-carboxylic acid] has an IC50 of 66 nM.
`CCc1nc(-c2nnn(C)c2CNC(=O)NCC2CC2)ccc1O[C@H]1CCC[C@H](C(=O)O)C1` [Example 152, (1S,3S)-3-((6-(5-((3-(cyclopropyl-methyl)ureido)methyl)-1-methyl-1H-1,2,3-triazol-4-yl)-2-ethyl-pyridin-3-yl)oxy)cyclohexane-1-carboxylic acid] showed an IC50 of 270 nM.
`C[C@@H](OC(=O)Nc1c(-c2ccc(O[C@H]3CCC[C@H](C(=O)O)C3)cn2)nnn1C)c1ccccc1` [Example 91, (1S,3S)-3-((6-(1-methyl-5-((((R)-1-phenylethoxy)carbonyl)amino)-1H-1,2,3-triazol-4-yl)pyridin-3-yl)oxy)cyclohexane-1-carboxylic acid] was tested, and the IC50 was 35 nM.
`Cc1nc(-c2nnn(C)c2NC(=O)OCC(C)C)ccc1O[C@H]1CCC[C@H](C(=O)O)C1` [Example 78, (1S,3S)-3-((6-(5-((isobutoxy-carbonyl)amino)-1-methyl-1H-1,2,3-triazol-4-yl)-2-methylpyridin-3-yl)oxy)cyclohexane-1-carboxylic acid] showed an IC50 of 29 nM.
Work on `COCCOC(=O)NCc1c(-c2ccc(O[C@H]3CCC[C@H](C(=O)O)C3)c(C)n2)nnn1C` [Example 21, (1S,3S)-3-((6-(5-((((2-methoxyethoxy)carbonyl)amino)methyl)-1-methyl-1H-1,2,3-triazol-4-yl)-2-methylpyridin-3-yl)oxy)cyclohexane-1-carboxylic acid] yielded an IC50 of 1620 nM.
In the case of `Cn1nnc(-c2ccc(O[C@H]3CCC[C@H](C(=O)O)C3)cn2)c1NC(=O)OCC1CCCCC1` [Example 86, (1S,3S)-3-((6-(5-(((cyclohexyl-methoxy)carbonyl)amino)-1-methyl-1H-1,2,3-triazol-4-yl)pyridin-3-yl)oxy)cyclohexane-1-carboxylic acid], the IC50 is reported as 36 nM.
In the case of `Cn1nnc(-c2ccc(O[C@H]3CCC[C@H](C(=O)O)C3)c(C(F)(F)F)n2)c1CNC(=O)OCc1ccccc1` [Example 92, (1S,3S)-3-((6-(5-((((benzyloxy)carbonyl)amino)methyl)-1-methyl-1H-1,2,3-triazol-4-yl)-2-(trifluoro-methyl)pyridin-3-yl)oxy)cyclohexane-1-carboxylic acid], the IC50 is reported as 14 nM.
`Cc1nc(-c2nnn(C)c2CNC(=O)OCc2ccccc2)ccc1O[C@@H]1CCC[C@@](F)(C(=O)O)C1` (single isomer, unassigned) [Example 211] showed an IC50 of 192 nM.
In the case of `Cc1nc(-c2nnn(C)c2CNC(=O)OC(C)(C)C)ccc1O[C@H]1CCC[C@H](C(=O)O)C1` [Example 30, (1S,3S)-3-((6-(5-(((tert-butoxycarbonyl)amino)methyl)-1-methyl-1H-1,2,3-triazol-4-yl)-2-methylpyridin-3-yl)oxy)cyclohexane-1-carboxylic acid], the IC50 is reported as 120 nM.
`CCCCN(C)C(=O)NCc1c(-c2ccc(O[C@H]3CCC[C@H](C(=O)O)C3)c(CC)n2)nnn1C` [Example 150, (1S,3S)-3-((6-(5-((3-butyl-3-methylureido)methyl)-1-methyl-1H-1,2,3-triazol-4-yl)-2-ethyl-pyridin-3-yl)oxy)cyclohexane-1-carboxylic acid] showed an IC50 of 44 nM.
In the case of `Cc1nc(-c2nnn(C)c2CNC(=O)N(C)CC2CCC2)ccc1O[C@H]1CCC[C@H](C(=O)O)C1` [Example 108, (1S,3S)-3-((6-(5-((3-(cyclobutylmethyl)-3-methylureido)methyl)-1-methyl-1H-1,2,3-triazol-4-yl)-2-methylpyridin-3-yl)oxy)cyclohexanecarboxylic acid], the IC50 is reported as 82 nM.
Work on `CCC(NC(=O)NCc1c(-c2ccc(O[C@H]3CCC[C@H](C(=O)O)C3)c(C)n2)nnn1C)c1ccccc1` (mixture of isomers) [Example 120, (1S,3S)-3-((2-methyl-6-(1-methyl-5-((3-(1-phenylpropyl)ureido)methyl)-1H-1,2,3-triazol-4-yl)pyridin-3-yl)oxy)cyclo-hexane-1-carboxylic acid] yielded an IC50 of 238 nM.
Compound `Cc1nc(-c2nnn(C)c2NC(=O)OCC2CC2)c(F)cc1O[C@H]1CCC[C@H](C(=O)O)C1` [Example 218, (1S,3S)-3-{[6-(5-{[(cyclopropylmethoxy)carbonyl]amino}-1-methyl-1H-1,2,3-triazol-4-yl)-5-fluoro-2-methylpyridin-3-yl]oxy} cyclohexane-1-carboxylic acid] has an IC50 of 300 nM.
In the case of `CCCCOC(=O)N(C)Cc1c(-c2ccc(O[C@H]3CCC[C@H](C(=O)O)C3)cn2)nnn1C` [Example 14, (1S,3S)-3-((6-(5-(((butoxycarbonyl)(methyl)amino)methyl)-1-methyl-1H-1,2,3-triazol-4-yl)pyridin-3-yl)oxy)cyclohexane-1-carboxylic acid], the IC50 is reported as 1020 nM.
`CCCCCOC(=O)NCc1c(-c2ccc(O[C@H]3CCC[C@H](C(=O)O)C3)c(C)n2)nnn1C` [Example 23] showed an IC50 of 3 nM.

Same assay, conditions: human LPA1 functional antagonist assay; read-out: hLPA1 IC50
Compound `Cc1nc(-c2nnn(C)c2CNC(=O)OCCCCC(F)(F)F)ccc1O[C@H]1CCC[C@H](C(=O)O)C1` [Example 166, (1S,3S)-3-((2-methyl-6-(1-methyl-5-(((((5,5,5-trifluoropentyl)oxy)carbonyl)amino)methyl)-1H-1,2,3-triazol-4-yl)pyridin-3-yl)oxy)cyclohexane-1-carboxylic acid] has an IC50 of 121 nM.
Work on `Cc1nc(-c2nnn(C)c2CNC(=O)OCCC(C)C)ccc1O[C@H]1CCC[C@H](C(=O)O)C1` [Example 197, (1S,3S)-3-((6-(5-((((isopentyloxy)carbonyl)amino)methyl)-1-methyl-1H-1,2,3-triazol-4-yl)-2-methyl-pyridin-3-yl)oxy)cyclohexane-1-carboxylic acid] yielded an IC50 of 16 nM.
For `Cc1nc(-c2nnn(C)c2CNC(=O)OCCC(C)(C)C)cnc1O[C@H]1CCC[C@H](C(=O)O)C1` [Example 158, (1S,3S)-3-((5-(5-((((3,3-dimethyl-butoxy)carbonyl)amino)methyl)-1-methyl-1H-1,2,3-triazol-4-yl)-3-methylpyrazin-2-yl)oxy)cyclo-hexane-1-carboxylic acid], the IC50 was 76 nM.
With `Cc1nc(-c2nnn(C)c2CNC(=O)OCC2(CCF)CC2)ccc1O[C@H]1CCC[C@H](C(=O)O)C1` [Example 163, (1S,3S)-3-((6-(5-(((((1-(2-fluoro-ethyl)cyclopropyl)methoxy)carbonyl)amino)methyl)-1-methyl-1H-1,2,3-triazol-4-yl)-2-methylpyridin-3-yl)oxy)cyclohexane-1-carboxylic acid] the IC50 was 88 nM.
`Cc1nc(-c2nnn(C)c2CNC(=O)OCCCCF)ccc1O[C@H]1CCC[C@H](C(=O)O)C1` [Example 162, (1S,3S)-3-((6-(5-((((4-fluorobutoxy)carbonyl)amino)methyl)-1-methyl-1H-1,2,3-triazol-4-yl)-2-methyl-pyridin-3-yl)oxy)cyclohexane-1-carboxylic acid] gave an IC50 of 60 nM.
For `Cc1nc(-c2nnn(C)c2CNC(=O)OCc2cccc(F)c2)cnc1O[C@H]1CCC[C@H](C(=O)O)C1` [Example 159, (1S,3S)-3-((5-(5-(((((3-fluorobenzyl)oxy)carbonyl)amino)methyl)-1-methyl-1H-1,2,3-triazol-4-yl)-3-methylpyrazin-2-yl)oxy)cyclo-hexane-1-carboxylic acid], the IC50 was 122 nM.
